The values below come from patent publication EP0294538B1, “Use of nigericin for the production of a medicament for the treatment of viral diseases” (S O "PHARMACHIM", priority 1987, dated 1988).

For data set [1], the system named is Virus-Erkrankungen des Auges. The experiment in a line: Clinical study of different treatments of viral diseases of the eye (Table 1). In kind it is in vivo, Patienten. From the text: Ergebnisse der klinischen Untersuchungen von Nigerizin (s. Tabelle 1).
Das Nigerizin enthaltende Arzneimittel in Form von Tropfen, Salbe und Suppositorien wurde an insgesamt 711 Patienten mit verschiedenen Virus-Erkrankungen: Labial-, Fazial-, Genital- und Gluteal- oder Femoralherpes, Herpes und Adenovirus-Keratitis und Konjunktivitis, Vaginitis, Endocervicitis und Exocervicitis mit Herpes-Ethiologie, Herpes Zoster der Augen und Haut angewendet.
Nigerizin-Tropfen wurden an 112 Patienten in drei Augenkliniken des Medizinischen Akademie-Forschungsinstitutes für Augenkrankheiten, Lehrstuhl für Ophthalmologie an den Hochschulen für Medizin in Varna und in Pleven verabreicht.

Data set [2] relates to Herpes-Erkrankungen. The experiment in a line: Efficacy of nigericin ointment depending on the start of treatment (Table 4). Particulars: treatment begun on the first day; analysis of 88 patients. The data set is classed as in vivo, Patienten. From the text:
Es wurde die Abhängigkeit zwischen der Wirksamkeit der Behandlung mit Nigerizin-Salbe und dem Beginn der Behandlung untersucht (siehe Tabelle 4). TABELLE 4
Bei 140 mit Nigerizin-Salbe behandelten Patienten wurde eine Wirksamkeit von 90% erreicht, verglichen mit weniger als 20% für die mit Placebo behandelten Kontrollgruppe. Die eingehende Analyse der Ergebnisse an 88 Patienten zeigt, daß es sehr wichtig ist, bei Nigerizin früh mit der Behandlung zu beginnen, wobei am ersten Tag die Wirksamkeit bis zu 100% beträgt. Bei den Patienten, die mit einer Placebo-Salbe behandelt wurden, wird die Wirksamkeit nicht durch die Phase der Erkrankung beeinflußt, was ihren nicht spezifischen Charakter beweist.

The test system of data set [3] is Auge eines Kaninchens. In kind it is in vivo, Kaninchen. Particulars: topical; doses 20 times the therapeutic concentrations; 10 days.
A short description of data set [4]: Acute toxicity by injection (LD50). Set-up: species or system weißen Ratten und Mäusen. The conditions noted are these: in vivo, white rats and mice, read-out: akute Toxizität (=LD₅₀). The procedure: (§1) Bei Spritzenbehandlung: Die akute Toxizität bei weißen Ratten und Mäusen (=LD₅₀) liegt im Bereich von 55 bis 66 mg/kg. Die chronische sechsmonatige Toxizität in Dosen bis 1/10 der LD₅₀ beträgt bis zu 5,6 mg/kg. […] Die pharmakologische Untersuchung zeigte gute Toleranz bei verschiedenen Tieren bei Konzentrationen bis zu 1/10 der LD₅₀.

Data set [5] concerns Ratten. The experiment in a line: Chronic six-month toxicity by injection. In kind it is in vivo. Particulars: six months, doses up to 1/10 of LD₅₀ (up to 5,6 mg/kg), blood, coagulation, blood and urine biochemistry, liver, histology, general state, weight, behaviour. The procedure: as §1
Data set [6] concerns trächtigen weißen Ratten. The experiment in a line: Embryotoxicity and teratogenicity by injection. In kind it is in vivo. Particulars: doses up to 5,6 mg/kg, pregnant white rats. The procedure: as §1
The test system of data set [7] is verschiedenen Tieren. The data set is described as follows: Pharmacological tolerance study. The conditions noted are these: various animals; up to 1/10 of LD₅₀. In kind it is in vivo. Here is the method: as §1
Data set [8] deals with zentralen Nervensystem. The data set is described as follows: Safety pharmacology: central nervous system. Particulars: in vivo. The procedure: as §1
The test system of data set [9] is Herz-Blutgefäß-System von Katzen. The experiment in a line: Safety pharmacology: cardiovascular system (blood pressure, electrocardiogram). In kind it is in vivo. Particulars: cats; blood pressure and electrocardiograms. Here is the method: as §1
For data set [10], the system named is Glattmuskulatur des Magen-Darm-Wegs. The experiment in a line: Safety pharmacology: smooth muscle of the gastrointestinal tract. In kind it is in vivo, Ratten und Kaninchen. Particulars: rats and rabbits. Here is the method:
as §1

A short description of data set [11]: Mutagenicity. Here is the method: as §1
Setting [12] is: Adenovirus-Keratokonjunktivitis.

In the case of `O=c1[nH]c(=O)n([C@H]2C[C@H](O)[C@@H](CO)O2)cc1I` [Idoxyridin, 2'-desoxy-5-iodo-uridin], the “Dauer der Behandlung (Tage)” value in data set [1] (setting [12]) was 9,3 Tage; in data set [1] (Oberflächen-Herpeskeratitis) it was 17,9 Tage; in data set [1] (Tiefe/Ulzerose/ Keratitis) it was 25,2 Tage. For the same compound, the “Prozent der günstigen Beeinflußung” value was 41 Prozent in data set [1] (setting [12]), 82 Prozent in data set [1] (Oberflächen-Herpeskeratitis) and 51 Prozent in data set [1] (Tiefe/Ulzerose/ Keratitis). Besides, the “Durchschnittsaufenthalt im Krankenhaus (Tage)” value in [1] (all clinical forms of the treatment group) is listed as 23,6 Tage.

For `COC1CC(CC2CCC(C)C(C(C)C(=O)O)O2)OC2(OC(C)(C3CCC(C)(C4OC(C5OC(O)(CO)C(C)CC5C)CC4C)O3)CC2C)C1C` (stereo not drawn) [Nigerizin], the “Dauer der Behandlung” value in data set [1] (compared with Idoxyridin, immune and physico-chemical means) is given as “um mehr als zweimal verringert”. Also, the Wirksamkeit in [2] was no more than 100%. Besides, the “toxische Wirkung am Auge” value in data set [3] was “keine toxische Wirkung”. For the same compound, the LD50 in [4] was 55 to 66 mg/kg. Further, the “chronische sechsmonatige Toxizität: Abweichungen der behandelten Ratten” value in data set [5] is given as “keine Abweichungen”. Moreover, the “embryotoxische und terratogene Wirkung” value in data set [6] was “keine embryotoxische und terratogene Wirkung”. For the same compound, in data set [7], the Toleranz entry is given as “gute Toleranz”. In data set [8], the “Veränderungen im zentralen Nervensystem” value was “keine Veränderungen”. For the same compound, the “Wirkung auf das Herz-Blutgefäß-System” value in [9] was “keine Wirkung”. In addition, in data set [10], the “Funktionen der Glattmuskulatur des Magen-Darm-Wegs” value is on record as “ändert nicht”. Besides, in data set [11], the Mutagenität result is on record as “keine Mutagenität”.
